Measurements published in patent publication US4185010A, “Nonapeptides” (American Home Products Corporation, priority 1978, dated 1980).
Where a SMILES comes first, the peptide text is derived from it. Bridges are numbered along the chain shown (N, C = ends). [ ]: non-standard residue; d: D form. Abu = CC[C@H](N)C(=O)O

How the values were obtained:
Format in all cases: in vivo
growth hormone (GH) = assay: Arginine-stimulated hormone release in Nembutal-anesthetized rats, growth hormone by radioimmunoassay; settings: albino male rats, 1,000 μg/kg subcutaneous, blood 15 min after dose (5 min after arginine); control 454 ± 106
Method: (§1) Albino male rate are administered Nembutal intraperitoneally at a dose of 50 milligrams per kilogram. Fifteen minutes later a subcutaneous injection of the test compound or physiological saline (control) is administered. Ten minutes later 0.5 milliliters of arginine (300 milligrams per milliliter, pH 7.2) is injected into the heart. Five minutes after receipt of the arginine the rats are decapitated and blood is collected into trasylol-EDTA. An appropriate aliquot is assayed for growth hormone (GH), insulin, and glucagon by radioimmunoassay.

insulin = assay: Arginine-stimulated hormone release in Nembutal-anesthetized rats, insulin by radioimmunoassay; settings: albino male rats, 1,000 μg/kg subcutaneous, blood 15 min after dose (5 min after arginine); control 269 ± 37
Method: as §1

glucagon = assay: Arginine-stimulated hormone release in Nembutal-anesthetized rats, glucagon by radioimmunoassay
Method: as §1

CC[C@@H]1NC(=O)[C@H](CCCCN)NC(=O)[C@@H](Cc2c[nH]c3ccccc23)NC(=O)[C@H](Cc2ccccc2)NC(=O)[C@H](Cc2ccccc2)NC(=O)[C@H](Cc2c[nH]cn2)NC(=O)[C@@H](N)CSSC[C@@H](C(=O)O)NC(=O)[C@H](Cc2ccccc2)NC1=O [Example 2, L-Cysteinyl-L-histidyl-L-phenylalanyl-L-phenylalanyl-D-tryptophyl-L-lysyl-L-α-aminobutyryl-L-phenylalanyl-L-cysteine cyclic (1-9) disulfide] (H-CHFF[dW]K[Abu]FC-OH; disulfide 1-9)
GH (growth hormone (GH)): 413 ± 98 ng/mL
INS (insulin): 262 ± 39 μU/ml
GLUN (glucagon; albino male rats, 1,000 μg/kg subcutaneous, blood 15 min after dose (5 min after arginine), control 60 ± 10, p<0.05): 31 ± 5 pg/mL
selective inhibition of glucagon release versus growth hormone and insulin levels (glucagon; without materially altering blood serum growth hormone and insulin levels): selectively inhibit glucagon release
